According to PubChem BioAssay AID1324 (NMMLSC, 2008):
Activity calls are given as the source filed them. The rule behind the calls is not given here.

These compounds were tested against glutathione S-transferase (GST-GSH binding) (assay: GST–glutathione interaction disruption – biochemical, multiplex beads, flow cytometry, HPSMTB buffer, profiling panel (AID 1324;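 note: glutathione beads loaded with GST-green fluorescent protein and no fluorescent Bim peptide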)). Conditions: multiplex bead flow cytometry, MCF.

SMILES | EC50
CCOC(=O)c1c2c3c(c(Cl)ccc3[nH]c1=O)C(=O)c1ccccc1-2 | 5.4 µM
O=C(NCCO)c1ccc2nc(-c3ccco3)c(-c3ccco3)nc2c1 | 9.03 µM
NC(=O)c1sc2nc3c(c(-c4ccco4)c2c1N)CCC3 | inactive
CCOC(=O)c1c2c3c(cccc3[nH]c1=O)C(=O)c1ccccc1-2 | inactive

Same assay, conditions: multiplex bead flow cytometry, MCF, hits give high values, concentration not given here

SMILES | percent span inhibition
Cc1cc(C)c2nc3nc(C)cc(C)c3c(N)c2c1 | inactive
CC1CCN(C2(O)C(=O)Nc3ccc(Br)cc32)CC1 (configuration not stated) | inactive
COc1ccc(NC(=O)Cc2c(F)cccc2Cl)c(OC)c1 | inactive
O=C1NC(=O)C(=Cc2ccc(-c3cc(Cl)ccc3[N+](=O)[O-])o2)C(=O)N1 | inactive
CCN(CC)c1ccc(-c2nn3c(-c4n[nH]c5c4CCC5)nnc3s2)cc1 | inactive
Cc1ccc(-c2cc(C(=O)Nc3cc(C(=O)O)ccc3C)c3ccccc3n2)cc1 | inactive
CC1=CC(=O)c2ccccc2C1=O | inactive
COc1ccc(/C=C(/C(=O)c2cccs2)N2C=CC=CC2=C(C#N)C#N)cc1 | inactive
OC(COc1ccc2ccccc2c1)CN1CCCC1 (configuration not stated) | inactive
Cc1cc(N)ccc1N1CCCC1 | inactive
O=C(OCc1cnc(Cl)s1)c1cccc(Cl)c1Cl | inactive
CNC(=O)c1c(N)sc2c1CCCCC2 | inactive
CCSc1ncnc2sc(C)c(C)c12 | inactive
O=C(NCCCO)Nc1ccc2nc(-c3ccco3)c(-c3ccco3)nc2c1 | inactive
Cc1ccc(/C=C/C(=O)c2ccccc(=O)c2O)c(C)c1 | inactive
Cc1cc(C)nc(SCc2cc(=O)c(OC(=O)c3cccc([N+](=O)[O-])c3)co2)n1 | inactive
Cc1ccc(N=Cc2c(O)n(-c3ccc4c(c3)OCO4)c(=O)c3ccccc23)cc1 | inactive
c1cncc(-c2nnc3n2N=C(c2cccs2)CS3)c1 | inactive
O=C(CSc1nc2ccsc2c(=O)n1Cc1ccc(C(=O)O)cc1)NCC1CCCO1 (configuration not stated) | inactive
COc1ccc(CCNC(=O)c2cc(-c3ccccn3)nc3c(Cl)cccc23)cc1OC | inactive
Cc1cc(C)cc(NS(=O)(=O)c2ccc3c(c2)c(=O)n(C)c(=O)n3C)c1 | inactive
COc1cccc(NC(=O)CSc2nncn2N)c1 | inactive
CCN(CC)c1ccc(-c2nn3c(-c4ccccc4OC)nnc3s2)cc1 | inactive
O=C(C[n+]1ccc(-c2nnc3n2CCC3)cc1)c1ccc(Cl)c(Cl)c1 | inactive
O=C(O)/C=C/C(=O)NNC(=O)c1ccc(Br)cc1 | inactive

SMILES | percent span inhibition
C=CS(=O)c1sc(Cl)c(N2CCOCC2)c1[N+](=O)[O-] (configuration not stated) | inactive
COc1ccccc1N(C)S(=O)(=O)c1ccc(C(=O)OCC(N)=O)cc1 | inactive
Cc1nnc(NCc2n[nH]c(=O)c3ccccc23)c2ccccc12 | inactive
Cc1ccc(C2=N/C(=C/c3cccs3)C(=O)N2Nc2ccccc2)cc1 | inactive
COc1ccc2nc(NC(=O)c3ccc(-c4cccc([N+](=O)[O-])c4)o3)sc2c1 | inactive
NNC(=O)COc1ccccc1F | inactive
CCOC(=O)CCCNC(=O)c1cncc(O)c1 | inactive
Cc1cc(OCc2cn3cccnc3n2)ccc1Cl | inactive
CCN1/C(=C/c2ccc3cc(C)ccc3[n+]2CC)Sc2cc(C)c(C)cc21 | inactive
O=C(N/N=C/c1cccc([N+](=O)[O-])c1)c1cccs1 | inactive
COc1ccc(N2CC(C(=O)Nc3nnc(SCC(=O)c4ccccc4)s3)CC2=O)cc1 (configuration not stated) | inactive
O=C(O)C1=C[C@H](C2CC2)C[C@H](OCCCCO)O1 | inactive
CCn1cc(C=C2C(=O)c3ccccc3C2=O)c2ccccc21 | inactive
CC(C)COC(=O)/C(C#N)=C/c1cn(Cc2ccccc2)c2ccccc12 | inactive
c1ccc(C2=Nc3cccc4cccc(c34)N2)cc1 | inactive
COc1cc(N=c2ssnc2Cl)cc(OC)c1OC | inactive
COc1ccc2oc(-c3ccccc3)c(C(=O)N3CCOCC3)c2c1 | inactive
CC(NCc1ccc(-c2ccccc2)cc1)C(O)c1ccccc1 (configuration not stated) | inactive
CCn1c(SCC(=O)Nc2ccc(C)cc2)nnc1-c1ccc(O)cc1 | inactive
CCCn1c(N2CCN(C)CC2)nc2c1c(=O)[nH]c(=O)n2C | inactive
COc1cc(N=c2ssnc2Cl)cc(OC)c1 | inactive
COc1cccc(N2CC(C(=O)Nc3nnc(SCC(=O)c4ccccc4)s3)CC2=O)c1 (configuration not stated) | inactive
CN(C)/C=C/C(=O)c1ccc(C(F)(F)F)cc1F | inactive
Cc1cccc(C(=O)N=c2c(C#N)cc3c(=O)n4cccc(C)c4nc3n2Cc2ccco2)c1 | inactive
CC(C)C(=O)N1CCN(c2ccc([N+](=O)[O-])cc2Cl)CC1 | inactive

SMILES | percent span inhibition
Cc1nn(-c2ccc(Cl)c(Cl)c2)c(C)c1C(=O)O | inactive
CCOC(=O)c1ccc(NC(=O)CSCCC(=O)O)cc1 | inactive
COc1ccc(/C=C2\SC(=O)NC2=S)cc1OC | inactive
CS(=O)(=O)NN1C(=O)c2ccccc2NC1c1ccccc1 (configuration not stated) | inactive
N=C1C(c2nc3ccccc3s2)=C(O)CN1Cc1ccccc1 | inactive
O=c1c2c(n3nnnc3n1Cc1ccccc1)-c1ccccc1CC21CCCC1 | inactive
COCCn1nnnc1CN(Cc1ccco1)Cc1cc2cc3c(cc2[nH]c1=O)OCO3 | inactive
COCc1cc(CN2CCCC(CNC(=O)c3ccc(F)cc3)C2)ccc1OC (configuration not stated) | inactive
Cn1cccc1CC(=O)N/N=C\c1ccccc1 | inactive
Cc1nc2cc(F)ccc2n1C1CCN(C(=O)c2c(F)cccc2F)CC1 | inactive
S=c1[nH]cc(-c2ccccc2)n1-c1ccccc1 | inactive
C/C(=N\NC(=O)Cn1nc(C)c([N+](=O)[O-])c1C)c1ccc(O)cc1 | inactive
O=C(C1CCC(Cn2c(=S)[nH]c3ccccc3c2=O)CC1)N1CCN(c2ccccn2)CC1 (configuration not stated) | inactive
Cc1ccc(C)n1-c1ccc(N2CCOCC2)cc1 | inactive
COc1ccc(NC(=O)c2c(F)cccc2F)cc1S(=O)(=O)Nc1ccc(Br)cc1 | inactive
Cc1ccc(-c2cc(C(=O)Nc3ccccc3C)c3ccccc3n2)o1 | inactive
COc1ccc(OC)c(NC(=O)COC(=O)c2cc3c(s2)CCC3)c1 | inactive
O=C(O)c1ccc(NC2=C/C(=N/S(=O)(=O)c3ccccc3)c3ccccc3C2=O)cc1 | inactive
COc1ccc(N2C(=O)C(Cl)=C(Nc3c(C)n(C)n(-c4ccccc4)c3=O)C2=O)cc1 | inactive
CCOC(=O)c1ccc(N=c2ssnc2Cl)cc1 | inactive
Cc1ccnc(NS(=O)(=O)c2ccc(NS(=O)(=O)c3cccs3)cc2)n1 | inactive
FC(F)(F)c1ccc2c(c1)C1C=CCC1C(c1ccncc1)N2 (configuration not stated) | inactive
O=C(CNC(=O)c1ccc(S(=O)(=O)N2CCCC2)cc1)N/N=C/c1ccc(Cl)cc1Cl | inactive
CCOC(=O)c1nc(Nc2ccc(C(=O)OC)cc2)c2ccccc2n1 | inactive
COc1ccc(C)cc1Nc1ccc(C(=O)O)cc1[N+](=O)[O-] | inactive

SMILES | percent span inhibition
CN(C)C(Cc1ccccc1)C(=O)c1cccs1 (configuration not stated) | inactive
CN(CCCOc1ccccc1Br)Cc1ccccc1 | inactive
CCOc1ccc(C(=O)Nc2nnn(CC)n2)cc1 | inactive
O=C(COc1ccccc1Br)NCc1ccccn1 | inactive
O=C(N/N=C/c1ccc(O)c(O)c1O)/C(=C/c1ccc([N+](=O)[O-])cc1)NC(=O)c1ccccc1 | inactive
O=C(NCc1ccccc1)c1ccc2nc(-c3ccco3)c(-c3ccco3)nc2c1 | inactive
COc1ccc(/C=C/C(=O)c2cc(Br)ccc(=O)c2O)cc1 | inactive
Nc1ccc(N2CCCCCC2)cc1 | inactive
Cc1cc(NC(=O)CCCC(=O)N(CC(=O)NC2CCCCC2)c2ccccc2)no1 | inactive
Cc1c(Cc2ccccc2)sc(N)c1C(N)=O | inactive
Cc1ccc(-c2nnc(Cc3ccc(Cl)cc3)o2)cc1 | inactive
Cc1ccnc(NS(=O)(=O)c2ccc(NC(=O)c3c(-c4ccccc4Cl)noc3C)cc2)n1 | inactive
COc1ccc(COC(=O)NNC(=O)c2ccccc2Cl)cc1 | inactive
COc1ccc(Cl)cc1-n1c(C)cc(C=O)c1C | inactive
CCOc1cc(CNc2ccc(N(C)C)cc2)cc(Br)c1OCC(=O)NC(C)(C)C | inactive
Cc1ccc(C(=O)CCC(=O)Nc2ccc(Cl)c(S(=O)(=O)Nc3cccc(Cl)c3)c2)cc1 | inactive
COc1ccc(C(=O)NC(=S)N2CCNC(=O)C2)cc1Br | inactive
O=C(CSc1nnc(-c2cccs2)n1Cc1ccco1)c1ccc2c(c1)OCO2 | inactive
COc1ccc(NC(=O)/C(C#N)=C/c2c(C)nn(-c3ccc(F)cc3)c2Cl)cc1Cl | inactive
COc1ccc(N2CCN(C(CNS(=O)(=O)c3ccc4c(c3)OCCO4)c3ccco3)CC2)cc1 (configuration not stated) | inactive
COc1cccc(-n2nnnc2SCC(=O)Nc2cccc(NC(C)=O)c2)c1 | inactive
Cc1sc2nc(C(C)C)nc(SCC(=O)N3c4ccccc4CC3C)c2c1C (configuration not stated) | inactive
Cc1onc(-c2ccccc2Cl)c1C(=O)Nc1nn[nH]n1 | inactive
